Measurements from PubChem BioAssay AID1329 (NMMLSC, 2008).
The source made the active and inactive calls. No rule for the calls is given here.

target: Induced myeloid leukemia cell differentiation protein Mcl-1 (Homo sapiens) (UniProt Q07820); test: Mcl-1/Bim interaction regulators – biochemical, bead-based flow cytometry, multiplexed, human, dose response (AID 1329); details: Bim peptide-Mcl-1 binding, MCF
Sequence (Q07820 whole entry, looked up): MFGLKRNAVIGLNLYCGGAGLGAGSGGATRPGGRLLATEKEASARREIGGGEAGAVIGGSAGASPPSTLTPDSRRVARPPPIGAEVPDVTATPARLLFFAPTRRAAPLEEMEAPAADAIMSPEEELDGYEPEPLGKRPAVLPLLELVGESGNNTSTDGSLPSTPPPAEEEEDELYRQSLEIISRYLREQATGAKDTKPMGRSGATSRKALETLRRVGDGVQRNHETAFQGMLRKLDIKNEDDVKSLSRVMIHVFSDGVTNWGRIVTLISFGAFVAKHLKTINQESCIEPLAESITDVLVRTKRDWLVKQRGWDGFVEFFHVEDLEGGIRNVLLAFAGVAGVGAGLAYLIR

Row | Compound | percent span
1 | CCOc1ccccc1C(=O)NC1CC2CCCC(C1)N2C1CC1 (stereo not drawn) | inactive
2 | CC(C)CN1C(=O)/C(=C/c2ccco2)NC1=S | inactive
3 | COc1ccc(N2CCN(CCCNC(=O)CCCn3c(=O)[nH]c4ccsc4c3=O)CC2)cc1 | inactive
4 | Cc1ccc2nc3c(cc(C(N)=S)c(=N)n3CCCOC(C)C)c(=O)n2c1 | inactive
5 | CCOC(=O)c1cc2c(=O)n3cccc(C)c3nc2n(Cc2ccco2)c1=NC(=O)c1ccccc1 | inactive
6 | Cc1nc2scc(-c3ccccc3)c2c(=O)n1N=C1C=CC(=O)C=C1 | inactive
7 | O=C(O)CC1S/C(=N/N=C/C=C/c2ccccc2[N+](=O)[O-])NC1=O (stereo not drawn) | inactive
8 | Cc1cccc(N=C2NC(=O)/C(=C/C=C/c3ccco3)S2)c1C | inactive
9 | NC(=O)c1sc2nc3c(c(-c4ccco4)c2c1N)CCC3 | inactive
10 | Cc1cc(C)c[n+](-c2nc3ccccc3nc2C(=C=[N-])C#N)c1 | inactive
11 | CCN(C(=O)COC(=O)c1cc(-c2ccc(C)o2)nc2ccccc12)C1CCS(=O)(=O)C1 (stereo not drawn) | inactive
12 | Cn1c(=O)c(C(=O)COC(=O)c2cc(-c3ccco3)nc3ccccc23)c(N)n(Cc2ccccc2)c1=O | inactive
13 | Cc1ccc(/C=C/C(=O)c2ccccc(=O)c2O)c(C)c1 | inactive
14 | COc1ccc(Cc2c(O)nc(SC)n(C(C)=O)c2=O)cc1 | inactive
15 | COc1cc(/C=N/NC(=O)c2ccc([N+](=O)[O-])cc2Cl)cc(Br)c1O | inactive
16 | O=C(CCCN1C(=O)c2cccc3cccc(c23)C1=O)N1CCN(c2ccccn2)CC1 | inactive
17 | CCCCOc1ccc(Cc2c(Cl)nc(SC)nc2N2CCOCC2)cc1 | inactive
18 | COC(=O)CSc1nccc(-c2cccs2)n1 | inactive
19 | Cc1cnnn1-c1ccc(C(=O)CCl)cc1 | inactive
20 | Cc1ccc(-n2[nH]c(C)c(/C=N/Nc3ccc([N+](=O)[O-])cc3[N+](=O)[O-])c2=O)cc1C | inactive
21 | COc1ccc(-n2cc(-c3ccc(OC)c(OC)c3)[nH]c2=S)cc1 | inactive
22 | CCc1nnc(NS(=O)(=O)c2ccc(N=CC3=C(O)CC(C)(C)CC3=O)cc2)s1 | inactive
23 | Cc1ccc2c(c1)c(C)c(C)n2CC(O)Cn1nc(C)c(Br)c1C (stereo not drawn) | inactive
24 | CNC(=O)c1sc(-c2ccccn2)nc1C | inactive
25 | CCOC(=O)CSc1nnc(-c2cccc(Cl)c2)n1CC | inactive
26 | COCCN=c1scc(-c2cccs2)n1/N=C/c1ccc(O)c(O)c1O | inactive

Row | Compound | percent span
27 | O=C1/C(=C/c2cccs2)Sc2ccccc21 | inactive
28 | CCN1CCN(c2cc(C)c3cc(NC(=S)N4CCN(c5ccccc5)CC4)ccc3n2)CC1 | inactive
29 | CCOc1ccccc1-n1c(=O)c2ccccc2c2ccccc2c1=O | inactive
30 | O=C1/C(=C\c2ccco2)NC(=S)N1c1ccccc1 | inactive
31 | O=C(NCC1CCCO1)c1ccc2c(=O)n(-c3ccc(F)cc3)c(=S)[nH]c2c1 (stereo not drawn) | inactive
32 | O=C(O)C1=C[C@H](C2CC2)C[C@H](OCCCCO)O1 | inactive
33 | CCn1c(SCC(=O)Nc2ccc(C)cc2)nnc1-c1ccc(O)cc1 | inactive
34 | Cc1cc(N/C(=N/S(=O)(=O)c2cc(F)ccc2F)c2ccccc2)n(-c2ccccc2)n1 | inactive
35 | CNC(=O)c1c(N)sc2c1CCCCC2 | inactive
36 | CNc1nc2ccccc2n1/N=C/c1cccc(OC)c1OC | inactive
37 | Cc1cc(/C=C(/C#N)C(=O)Nc2ccc(Cl)cc2)c(C)n1-c1cccnc1 | inactive
38 | CCC(CC)C(=O)Nc1cccc(SC)c1 | inactive
39 | CC(C)n1nnnc1SCC(=O)N1CCN(C(=O)c2ccco2)CC1 | inactive
40 | Cc1nnc(NCc2n[nH]c(=O)c3ccccc23)c2ccccc12 | inactive
41 | COc1ccccc1C1=Nc2cccc3cccc(c23)N1 | inactive
42 | CCN(CC)c1ccc(NC(=O)c2ccccc2)cc1S(=O)(=O)Nc1ccccc1OC | inactive
43 | Cc1c(Cc2ccccc2)sc(N)c1C(N)=O | inactive
44 | CCN(CC)c1ccc(NC(=O)COc2ccccc2C)cc1S(=O)(=O)Nc1ccccc1OC | inactive
45 | CN(C(=O)NC1CCCCC1)c1ccccc1 | inactive
46 | COc1ccc(Cl)cc1-n1c(C)cc(C=O)c1C | inactive
47 | COc1ccc2nc(C)cc(SCC(=O)N/N=C/c3ccc(O)cc3O)c2c1 | inactive
48 | CCOC(=O)c1c(NC(C)=O)sc2c(O)c(Br)cc(Br)c12 | inactive
49 | O=C1C(Cl)=C(Nc2ccccc2O)C(=O)N1c1ccccc1 | inactive
50 | Cc1onc(-c2ccccc2Cl)c1C(=O)Nc1nn[nH]n1 | inactive
51 | CC(=O)NC1=C(NC2CCS(=O)(=O)C2)C(=O)c2ccccc2C1=O (stereo not drawn) | inactive
52 | Cc1ccc(-c2cc(-c3ccccc3Cl)c(C#N)c(N)n2)o1 | inactive

Row | Compound | percent span
53 | O=C(Nc1cccc(Cl)c1)Nc1ccnc(-c2cccnc2)n1 | inactive
54 | BrC(=C\c1ccccc1)/C=N/N1CCN(c2ccccc2)CC1 | inactive
55 | Cc1cccc(Nc2nc(-c3ccncc3)cs2)c1 | inactive
56 | COc1ccccc1-n1c(SCC(=O)N2CCc3ccccc32)nc2c(c1=O)SCC2 | inactive
57 | O=C1CCc2cc(S(=O)(=O)NCCCC(=O)N3CCN(Cc4ccc5c(c4)OCO5)CC3)ccc2N1 | inactive
58 | C#CCOCCOCCOCCNc1nc(N2CCN(C(=O)[C@H]([C@@H](C)CC)n3cc([C@@H](N)CC(C)C)nn3)CC2)nc(N2CCN(C(=O)[C@H](Cc3cc4ccccc4[nH]3)n3cc([C@@H](N)Cc4ccc(O)cc4)nn3)CC2)n1 | inactive
59 | OC(CNC1CCCCC1)COCCOc1ccc(Br)cc1 (stereo not drawn) | inactive
60 | COC(=O)c1c(C(=O)OC)c2cccc3cc(-c4ccccc4)c4ccc1c4n32 | inactive
61 | COc1ccc(COC(=O)NNC(=O)c2ccccc2Cl)cc1 | inactive
62 | CC1CC2=C(NC(=S)NC2c2ccccc2F)/C(=C/c2ccccc2F)C1 (stereo not drawn) | inactive
63 | c1csc(C2=Nn3c(nnc3-c3ccncc3)SC2)c1 | inactive
64 | COc1ccc(CCNC(=O)c2cc(-c3ccccn3)nc3c(Cl)cccc23)cc1OC | inactive
65 | Cc1cc(Cl)c(S(=O)(=O)NCC2CCCO2)cc1OCC(N)=O (stereo not drawn) | inactive
66 | Cc1ccc2c(c1)C1CN(C)CCC1N2C(=O)Nc1cccc(Cl)c1 (stereo not drawn) | inactive
67 | CCc1nnc(NC(=O)CSc2nnc(COc3ccc(C)cc3)n2-c2ccccc2)s1 | inactive
68 | C(=C\c1ccccc1)/CSc1nnc(-c2ccccn2)n1Cc1ccco1 | inactive
69 | Cc1ccc(NS(=O)(=O)c2cc(NC(=O)c3ccc4c(c3)NC(=O)CS4)ccc2C)c(C)c1 | inactive
70 | CC(CCc1ccccc1)NC(=O)C1CCN(S(=O)(=O)N2CCCCC2)CC1 (stereo not drawn) | inactive
71 | COc1ccc(N2C(=O)C(Cl)=C(Oc3cccc(OC)c3)C2=O)cc1 | inactive
72 | C/C(=N\NC(=O)Cn1nc(C)c([N+](=O)[O-])c1C)c1ccc(O)cc1 | inactive
73 | Cc1ccc(-c2cc(C(=O)Nc3cccnc3)c3ccccc3n2)o1 | inactive
74 | O=C(N/N=C/c1ccncc1)c1cccc(NC(=O)c2ccccc2Cl)c1 | inactive
75 | C=CS(=O)(=O)c1sc(Cl)c(N2CCOCC2)c1[N+](=O)[O-] | inactive
76 | O=C(NCCCN1CCCC1=O)NC1CCCCC1 | inactive
77 | O=C(NNC(=O)C12CC3CC(CC(C3)C1)C2)c1ccco1 | inactive
78 | COc1ccc(C2CC(=O)C3=C(C2)Nc2ccccc2NC3c2coc3ccccc3c2=O)cc1OC (stereo not drawn) | inactive

Row | Compound | percent span
79 | COc1ccc(NS(=O)(=O)c2cc(NC(=O)c3ccc(C)o3)ccc2N2CCCCC2)cc1 | inactive
80 | O=[N+]([O-])c1cccc(S(=O)(=O)NCC2CCCO2)c1 (stereo not drawn) | inactive
81 | CC1(C)SC(=S)N(NC(=O)Nc2ccccc2)C1N(O)C(=O)Nc1cccc2ccccc12 (stereo not drawn) | inactive
82 | CCOc1cc(S(=O)(=O)N2CCCCC2)ccc1F | inactive
83 | COC(=O)c1sc(NC(=O)c2ccc(Cn3cc(Cl)cn3)o2)c(C#N)c1C | inactive
84 | CSc1nnc2ccc(-c3cccs3)nn12 | inactive
85 | O=C(Cn1c(-c2ccccc2)noc1=O)N1CCC(Cc2ccccc2)CC1 | inactive
86 | Cc1ccc(-c2cc(C(=O)OCC(=O)N(C)C3CCS(=O)(=O)C3)c3ccccc3n2)o1 (stereo not drawn) | inactive
87 | COc1ccc(NC(=O)c2cc(-c3ccc(C)o3)nc3ccccc23)cc1OC | inactive
88 | Cc1occc1C(=O)NNC(=S)NCc1ccccc1 | inactive
89 | Cc1ccc(OCc2cn3cccnc3n2)cc1 | inactive
90 | O=C(COc1ccccc1)Nc1ccc2c(c1)Cc1cc(NC(=O)COc3ccccc3)ccc1-2 | inactive
91 | CCSc1ncnc2sc(C)c(C)c12 | inactive
92 | Cc1cc(N)ccc1N1CCCC1 | inactive
93 | COC(=O)Cc1ccc(NC(=S)N2CCN(c3cccc(O)c3)CC2)cc1 | inactive
94 | CC1(C)Cc2c(ccc3ccccc23)/C(=C/C(=O)N2CCCCC2)N1 | inactive
95 | CCN(CC)CCN(C(=O)c1ccc(N2C(=O)CCC2=O)cc1)c1nc2cc3c(cc2s1)OCCO3 | inactive
96 | O=C1c2ccccc2C(=O)N1CN(C(=O)COc1ccc(Cl)cc1Cl)c1cccc(F)c1 | inactive
97 | CC1=CC(=O)c2ccccc2C1=O | inactive
98 | CCN(CC)c1nc(N)nc(N(c2ccccc2)c2ccccc2)n1 | inactive
99 | OCCC1CN(Cc2nc3c(s2)CCCC3)CCN1Cc1ccsc1 (stereo not drawn) | inactive
100 | N#CC(C#N)=C1C=CC=CN1/C(=C\c1ccco1)C(=O)c1ccccc1 | inactive
101 | CNCc1ccccc1Sc1ccc(O)c(O)c1 | inactive
102 | c1ccc(Nc2nc(-c3ccncc3)cs2)cc1 | inactive
103 | COC(=O)c1sc2nc[nH]c(=O)c2c1C | inactive
